The structures appear in SMILES notation. Where only a bound is given, the exact number is not on record here.

The subject of one test is NPC3-SV cells. The experiment in a line: Stored cholesterol by filipin staining in NPC3-SV cells. The format is cell-based, Human. Particulars: for clearance of cholesterol (stored cholesterol levels): 48 h, FIG. 8. As to the method:
(§1) Cells are plated in 6-well dishes and treated with the appropriate compound (dissolved in DMSO) at the indicated dose daily for 48 hrs. Control cells receive DMSO. After 48 hrs cells are transferred to cover slips with fresh compound and grown for another 24 hrs. Cover slips are collected and processed for microscopy.
(§2) Filipin: For detection of unesterified cholesterol in lysosomes, cells were fixed in formalin for 30 min at 4° C., washed 2×, 5 min in 0.9% NaCl, incubated for 45 min with 0.01% filipin in PBS at room temperature, and then washed 2×, 5 min. Fluorescence was observed using a Nikon Eclipse fluorescence microscope (Nikon, Melville, N.Y.) equipped with a CCD camera. Fluorescence signals were quantified using Nikon's imaging and quantitation software package NIS Elements, v. 3.22.

The test system of a further test is human NPC1 3123 cells. The test is described as follows: Sphingolipid transport, BODIPY-LacCer staining. Format: cell-based. To be noted: 48 hours. The text has this: For filipin staining in transfected cells, cells were transfected with PKC or Rab9 using Fugene 6 according to the manufacturer's recommendations. After 48 hrs, cells were stained with filipin as we have previously described. Cells were mounted onto slides using Fluoromount-G (SouthernBiotech, Birmingham, Ala.) and analyzed on a Nikon Eclipse microscope fitted with a charge-coupled-device camera (Nikon, Melville, N.Y.). Images were acquired with MetaVue software and then deconvoluted using AutoDeblur software from AutoQuant Imaging, Inc (Troy, N.Y.). For quantitation of filipin fluorescence, cells were seeded at 3×10^5 cells/well in 6-well dishes and allowed to settle overnight, after which the medium was replaced with medium containing 10% lipoprotein deficient serum (LPDS) for 4 days. Cells were incubated with oleic/linoleic acids for 48 hours, DCPLA/DHA for 24 hrs, or diazoxide for 72 hrs before fixing and staining with filipin as we have previously described. Images were acquired using the same exposure time for all samples. Fluorescence intensity was determined using the integrated intensity function of MetaVue software; at least 150 cells were quantitated for each sample and each experiment was repeated 3 times. For analysis of sphingolipid transport, cells were incubated with oleic/linoleic acids, DCP-LA, or PMA for 48 hours before BODIPY-LacCer staining was performed as previously described.

The subject of test [1] is human NPC1 fibroblasts (NPC1 3123). The test is described as follows: Soluble vimentin levels by Western blot after fatty acid treatment. The format is cell-based. To be noted: for soluble vimentin in NPC1 cells: discussion statement, FIG. 5, concentration not given; for levels of soluble vimentin in cell lysates: human NPC1 fibroblasts, 50 μg/ml, 48 hours (FIG. 5 legend: 24 hrs). How it is done: The human wild-type fibroblast (GM05387), NPClo fibroblast (GM09341), and NPC1 fibroblast (GM03123) cell lines were obtained from Coriell Cell Repositories (Camden, N.J.). The M12 Chinese hamster ovary (CHO) cell line and its wild-type parental line were obtained and cultured. Fibroblast cell lines were cultured in DMEM, and CHO cells were cultured in DMEM/F12 (50:50) medium, supplemented with 10% FBS, 2 mM L-glutamine, and 50 μg/ml gentamicin in a humidified incubator at 37° C. with 5% CO2.
Transfected cells were harvested with PBS containing 2 mM EDTA at 2 days post-transfection. Soluble and insoluble cell fractions were prepared as described previously. Briefly, to obtain the soluble/cytoplasmic fraction, cells were incubated on ice for 30 min in cold “phospho” buffer [150 mM NaCl, 20 mM NaF, 100 μM Na3VO4, 20 mM Hepes, pH 7.5), 1% (v/v) Igepal, 10% (v/v) glycerol, and 1 μL/20 mg tissue of protease inhibitor cocktail] and then centrifuged for 20 min at 14,000 rpm at 4° C.; the clear supernatant was frozen in aliquots at a concentration of 1 μg/μl. The pellet (insoluble fraction) was washed 3 times in ice-cold PBS containing 2 mM EDTA and then resuspended in a volume of “Triton” buffer [PBS, 1% (w/v) SDS, and 0.1% (v/v) Triton X-100] equal to the “phospho” buffer. This solution was boiled for 10 min and sonicated until the solution became clear. The protein concentration of this fraction was adjusted to 1 μg/μl according to the protein concentrations determined for the soluble/cytoplasmic fraction. Protein concentrations were determined using the fluorescamine method as we have described. 4-12% Bis-Tris precast gel (Invitrogen, Carlsbad, Calif.) and then transferred onto a Protran membrane using an XCell II apparatus (Invitrogen, Carlsbad, Calif.) according to the manufacturer's instructions. Blots were processed as described previously.
A general note: In western blotting, separated proteins are transferred to a membrane and probed.

Test [2] concerns NPC24-SV cells. The test is described as follows: Cholesterol accumulation by filipin staining in NPC24-SV cells. Format: cell-based, Human. How it is done:
as §1, §2

The subject of a further test is NPC3SV cells. The format is cell-based, Human. To be noted: FIG. 12, concentration not given.
Another test has as its system M12 NPC1 CHO cells. The experiment in a line: Cholesterol esterification assay ([3H] oleate). The format is cell-based, Chinese hamster. To be noted: 50 μg/ml fatty acid for 2 days followed by expression of PKC ε. How it is done:
The preparation of [^3H] oleate substrate and esterification assays were performed as previously described. Cells were treated with 50 μg/ml fatty acid for 2 days and then transfected with PKE α or PKC ε for 24 hrs before esterification assays. All values were generated in triplicate and normalized for total cell protein.

A further test relates to NPC cells. Particulars: earlier study [5]; cited from earlier work.
The next test deals with C57Bl6 NPC1 mice. The experiment in a line: Survival of C57Bl6 NPC1 mice dosed IP twice weekly. Format: in vivo, mouse. As to the method: A total of […] C57Bl6 NPC1 mice, mixed sex, were used. These mice were separated into 5 groups of 5 mice each, Groups 1-5.
Bryostatin 1 (purity≧95%) from Aphios (Woburn, Mass.), 1 vial 2 mg, was solubilized in a 5% DMSO, 20% Solutol and 75% Saline solution and used as the study drug. The negative (vehicle) control is a 5% DMSO, 20% Solutol and 75% Saline solution. DCP-LA from Sigma-Aldrich: 5 mg oil/vial was used as an additional in vitro active compound. Bryostatin 1 (API) was stored at or below −20° C. and formulated as needed. The formulated bryostatin 1 was stored at 2° to 8° C. for less than 24 hour(s). The DCP-LA and the vehicle controls were stored at 2°-8° C.
The stock solution of bryostatin 1 is 10 mg/ml in DMSO, which is kept at −80° C. in aliquots. The dosing formulation is made by diluting the stock first in DMSO, then adding solutol, and lastly saline—with more insoluble compounds, adding the drug stock to complete vehicle will cause the compound to come out of solution, so we make formulations stepwise. The dosing volume is always 100 μl. Mice weigh approximately 20 g.
The mice are dosed twice weekly (Mon and Thu) starting at 30 days for up to 150 days.
C57 NPC1 mice have an average life span of ˜110 days. By Day 70 mice reach an average weight of 18-22 grams. Untreated NPC1 mice develop ataxia and will begin to lose weight at ˜70 days (see FIG. 17). Ataxia (or lack of voluntary muscle control) is a clinical feature of NPC1 mice, which may be described as shaking. Treatment will be initiated at ˜30 days of age, average NPC mouse weight of 10 g. If the drug is efficacious injections will continue past day 70-80. An extension of life of about 20-30% will mean that animals will need to be treated up to day 130-150.

Test [3] has as its system NPC24-SV cells. The experiment in a line: Glycosphingolipid accumulation by VTB staining in NPC24-SV cells. The format is cell-based, Human. To be noted: 0.1 nM.

On to `CC1=NS(=O)(=O)c2cc(Cl)ccc2N1` [diazoxide], for which the “clearance of cholesterol (stored cholesterol levels)” value (shortened to “clearance of cholesterol”) in the test on NPC3-SV cells was “able to induce clearance of cholesterol”.

As to `CCCCCC1CC1CC1CC1CCCCCCCC(=O)O` (centres unmarked) [DCP-LA, 8-[2-(2-pentyl-cyclopropylmethyl)-cyclopropyl]-octanoic acid], in the test on human NPC1 3123 cells (20 μM), the “BODIPY-LacCer transport to the trans-Golgi network” value (from here on “BODIPY-LacCer transport”) is on record as “the lipid can be seen in the TGN”. Moreover, the “soluble vimentin in NPC1 cells” value in test [1] is “increase of soluble vimentin”. Moreover, in the test on NPC24-SV cells [2] (NPC24-SV cells, FIG. 11, concentration not given), the filipin accumulation result is “decrease filipin accumulation”. Also, the “clearance of cholesterol” value in the test on NPC3-SV cells was “able to induce clearance of cholesterol”. Moreover, the ganglioside transport block result in the test with NPC3SV cells is on record as “release the ganglioside transport block”.

As for `CCCCC/C=C\C/C=C\CCCCCCCC(=O)O` [linoleic acid], the “BODIPY-LacCer transport” value in the test with human NPC1 3123 cells (2 μg/ml) is “the lipid can be seen in the TGN”. For the same compound, in the test on M12 NPC1 CHO cells, the “cholesterol esterification levels over untreated cells” value was ~3.5 fold. In test [1], the “soluble vimentin in NPC1 cells” value is on record as “increase of soluble vimentin” and the “levels of soluble vimentin in cell lysates” value was “significantly increases the amount of soluble vimentin”.

`CCCCCCCC/C=C\CCCCCCCC(=O)O` [oleic acid, cis-9-octadecenoic acid]: the “BODIPY-LacCer transport” value in the test on human NPC1 3123 cells (2 μg/ml) is reported as “the lipid can be seen in the TGN”. For the same compound, in the test with M12 NPC1 CHO cells, the “cholesterol esterification levels over untreated cells” value is ~3.5 fold. In test [1], the “soluble vimentin in NPC1 cells” value is “increase of soluble vimentin” and the “levels of soluble vimentin in cell lysates” value was “significantly increases the amount of soluble vimentin”.

Take `CCCCCCCCCCCCCC(=O)O[C@@H]1[C@@H](C)[C@@]2(O)[C@@H](C=C(CO)C[C@]3(O)C(=O)C(C)=C[C@@H]23)[C@@H]2C(C)(C)[C@]12OC(C)=O` [PMA, phorbol-12-myristate-13-acetate]: the “BODIPY-LacCer transport” value with human NPC1 3123 cells (100 nM) was “the lipid can be seen in the TGN”. Also, in the test with NPC cells, the “NPC lipid storage phenotype” value is “ameliorated the NPC lipid storage phenotype” and the “levels of soluble vimentin” value is recorded as “increased levels of soluble vimentin”.

In the case of `CCC/C=C/C=C/C(=O)O[C@H]1/C(=C/C(=O)OC)C[C@H]2C[C@H]([C@@H](C)O)OC(=O)C[C@H](O)C[C@@H]3C[C@H](OC(C)=O)C(C)(C)[C@](O)(C[C@@H]4C/C(=C/C(=O)OC)C[C@H](/C=C/C(C)(C)[C@]1(O)O2)O4)O3` [bryostatin 1], the “age that mice lived past” value with C57Bl6 NPC1 mice (10 μg/kg IP twice weekly from 30 days of age), in the test on C57Bl6 NPC1 mice (20 μg/kg IP twice weekly from 30 days of age) and with C57Bl6 NPC1 mice (30 μg/kg IP twice weekly from 30 days of age) was > 100 days throughout. Also, the “effect in sphingolipid assay” value in the test with NPC24-SV cells [3] was “no effect”. The “effect in cholesterol assay” value with NPC24-SV cells [2] (0.1 nM, NPC24-SV cells) is given as “no effect”. Besides, the cholesterol clearance result with NPC24-SV cells [2] (10 nM, NPC24-SV cells, FIG. 11) is reported as “able to effect cholesterol clearance”. Further, in the test on NPC24-SV cells [2] (human NPC1 disease cells, summary of Example 2), the “concentration showing a positive therapeutic effect” value is 10 to 100 nM. Also, in the test on NPC3-SV cells, the “clearance of cholesterol” value is “able to induce clearance of cholesterol”. Besides, the stored cholesterol levels entry with NPC3-SV cells (72 h, FIG. 9) was “activity in the nanomolar concentration range”.
